Test results as given in the supplement of paper PMC10307832.

Columns and labels:
Assay in all cases: relative viability (nuclei count vs DMSO), 5 days (fraction); higher = more cells survive
[1] = compound: C1/C(=C\C2=CC=CS2)/C(=O)/C(=C/C3=CC=CS3)/C1 + O=C(CCCCCCC(=O)Nc1ccccc1)NO [Vorinostat] (partner 1 µM)
Outline: (§1)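 After 5 days of treatment, lung cancer cells in 1536-well plates were fixed and stained in a single step (final 0.05% Triton X-100, 1% formaldehyde, 1 ug/ml Hoechst) and their nuclei counted on 4× images. Treatment had been applied by pin tool the day after seeding as one drug alone or as a fixed anchor-drug dose with five library-drug doses (not always all listed) in √10 steps. Relative viability is the nuclei count of treated wells divided by that of vehicle wells, and values are medians of duplicate plates.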

[2] = compound: C1/C(=C\C2=CC=CS2)/C(=O)/C(=C/C3=CC=CS3)/C1 + CC1(C)CCC(c2ccc(Cl)cc2)=C(CN2CCN(c3ccc(C(=O)NS(=O)(=O)c4ccc(N[C@H](CCN5CCOCC5)CSc5ccccc5)c(S(=O)(=O)C(F)(F)F)c4)cc3)CC2)C1 [Navitoclax] (partner 0.5 µM)
Outline: as §1

TPCA-1 + Vorinostat = compound: C1=CC(=CC=C1C2=CC(=C(S2)NC(=O)N)C(=O)N)F [TPCA-1] + O=C(CCCCCCC(=O)Nc1ccccc1)NO [Vorinostat] (partner 1 µM)
Outline: as §1

Cell Line	relative viability ([1]; first compound 0.2 µM)	relative viability ([1]; first compound 0.6325 µM)	relative viability ([1]; first compound 2 µM)	relative viability ([1]; first compound 6.325 µM)	relative viability ([1]; first compound 20 µM)	relative viability ([2]; first compound 0.2 µM)	relative viability ([2]; first compound 0.6325 µM)	relative viability ([2]; first compound 2 µM)	relative viability ([2]; first compound 6.325 µM)	relative viability ([2]; first compound 20 µM)	relative viability (TPCA-1 + Vorinostat; first compound 0.04 µM)	relative viability (TPCA-1 + Vorinostat; first compound 0.1265 µM)	relative viability (TPCA-1 + Vorinostat; first compound 0.4 µM)	relative viability (TPCA-1 + Vorinostat; first compound 1.265 µM)	relative viability (TPCA-1 + Vorinostat; first compound 4 µM)
NCI-H1975	0.814	0.671	0.774	0.689	0.731	1.09	1.19	1.04	0.912	1.08	0.724	0.699	0.712	0.632	0.444
NCI-H1993	0.729	0.701	0.972	0.702	0.561	1.04	0.877	0.971	0.693	0.818	0.877	0.74	0.921	0.694	0.533
NCI-H2009	0.721	0.733	0.729		0.68	1.19	1.21	1.06	1.15	1.16	0.746	0.785	0.693	0.757	0.675
NCI-H2023	0.722	0.67	0.727	0.582	0.539	1.08	0.991	1.03	0.971	0.94	0.634	0.608	0.772	0.506	0.241
NCI-H2085	0.739	0.808	0.857	0.7	0.715	1.13	1.16	1.03	1.15	1.09		0.803	0.803	0.781	0.514
NCI-H2087	0.623	0.656	0.7	0.616	0.361	1.13	1.04	0.933	0.669	1.05	0.734	0.759	0.911	0.629	0.266
NCI-H2126	0.742	0.774	0.809	0.717	0.781	0.941	0.79	0.832	0.628	0.845	0.843	0.695	0.891	0.559	0.238
NCI-H2170	0.898	0.814	0.787	0.728	0.766	0.655	0.565	0.678	0.516	0.547	0.965	0.881	0.779	0.724	0.628
NCI-H2228	0.668	0.563	0.764	0.396	0.504	0.823	1.3	0.904	0.73	1.05	0.733	0.813	0.933	0.501	0.567
NCI-H2347	0.627	0.561	0.601	0.61	0.667	0.721	0.741	0.725	0.857	0.801	0.8	0.551	0.803	0.527	0.516
